Molecular target: T1, LXRα or LXRβ
T1 construct: fused on or other part: N-terminal poly-His tag from the pBacPakhis1 vector
Assay: Saturation binding of [3H] 24,25 epoxycholesterol (EC) to the receptor
Set-up: species or system human
Conditions: as determined by saturation binding; typical value used for the Cheng and Prusoff equation
Protocol: The SPA assay measures the radioactive signal generated by the binding of ^3H-24,25-epoxycholesterol to LXRα or LXRβ. The basis of the assay is the use of SPA beads containing a scintillant, such that when binding to the receptor brings the labeled ligand into proximity with the bead, the energy from the label stimulates the scintillant to emit light. The light is measured using a standard microplate scintillation reader. The ability of a ligand to bind to a receptor can be measured by assessing the degree to which the compound can compete off a radiolabelled ligand with known affinity for the receptor.
For this assay, typically the Concentration of Ligand=50 nM and the Kd of EC for the receptor is 200 nM as determined by saturation binding.

Q: How did the Kd turn out when `C[C@H](CCC1OC1(C)C)[C@H]1CC[C@H]2[C@@H]3CC=C4C[C@@H](O)CC[C@]4(C)[C@H]3CC[C@]12C` (stereo partly shown) [EC, 24,25 Epoxycholesterol] was run?
A: 200 nM

— patent publication US20080119488A1, “Modulators Of Nuclear Receptors” (EXELIXIS, INC., priority 2004, published 2008)
